The values that follow come from US20220362396A1, “AMINO-PYRAZINECARBOXAMIDE COMPOUNDS, CONJUGATES, AND USES THEREOF” (Silverback Therapeutics, Inc., priority 2018, published 2022).

pEC50, pIC50: −log10 of the molar value. Bounds are passed on as bounds.

As usually defined, the pEC50 is the negative decadic logarithm of the EC50, by convention in mol/L. High values mean a small EC50, low ones a large EC50. The term pIC50 denotes −log10 of the IC50, conventionally taken in molar units. The low end stands for a high IC50, the high end for a low IC50.

Experiment [1] has as its system TGFβ/SMAD Signaling Pathway SBE reporter cell line. In words: TGFβ reporter assay, in vitro small molecule screening (luciferase). Format: cell-based. Particulars: TGFβ stimulation, luminescence. In a few lines:
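SBE luciferase reporter cells (~0.5×10^6 cells/mL) preincubated with compound 5-6 h at 37 °C in 0.5% FBS MEM, then stimulated with TGFβ (12 ng/mL stock) for 18 h. Luminescence read after luciferase substrate; EC50 from curve fits.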

The target in another experiment is T1, TGFBR2 (Homo sapiens, UniProt P37173).
T1 construct: purchased Reaction Biology Corp
The experiment can be described thus: TGFBR2 RBC assay (enzyme inhibition assay, Reaction Biology Corp.). It is filed as biochemical. As to the method:
Compounds of the disclosure were also assayed by Reaction Biology Corp. using the TGFBR2 RBC assay (enzyme inhibition assay). […] NT refers to not tested.

T1 sequence (P37173 23-567): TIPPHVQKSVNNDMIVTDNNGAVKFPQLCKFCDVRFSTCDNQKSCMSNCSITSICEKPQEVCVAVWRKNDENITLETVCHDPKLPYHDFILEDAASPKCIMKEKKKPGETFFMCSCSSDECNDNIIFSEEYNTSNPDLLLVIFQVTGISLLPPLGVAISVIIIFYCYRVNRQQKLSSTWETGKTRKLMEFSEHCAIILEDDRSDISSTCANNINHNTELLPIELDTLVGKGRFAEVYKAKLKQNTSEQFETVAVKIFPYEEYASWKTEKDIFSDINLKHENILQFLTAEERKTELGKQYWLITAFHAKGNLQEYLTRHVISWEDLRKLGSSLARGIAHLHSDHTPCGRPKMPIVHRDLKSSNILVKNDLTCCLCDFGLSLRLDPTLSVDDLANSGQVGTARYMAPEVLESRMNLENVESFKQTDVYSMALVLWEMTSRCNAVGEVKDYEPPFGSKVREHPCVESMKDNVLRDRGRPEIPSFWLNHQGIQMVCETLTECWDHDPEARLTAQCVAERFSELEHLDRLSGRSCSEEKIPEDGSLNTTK

`Nc1ncc(-c2ccc(CCNC(=O)OCc3ccccc3)cc2)nc1C(=O)Nc1cnccc1N1CCS(=O)(=O)CC1` [Compound 52] gave a pEC50 in experiment [1] of 6.00 to 7.00. In addition, at TGFBR2, the negative logarithm of the IC50 (pIC50) was under 6.00.

Take `COc1ccc(-c2ccncc2NC(=O)c2nc(-c3ccc(CCNC(=O)OCc4ccccc4)cc3)cnc2N)cn1` [Compound 16]: the pEC50 in experiment [1] was 6.00 to 7.00. Further, at TGFBR2, the pIC50 was over 7.30.

`CC(C)(C)OC(=O)NCC1CCc2cc(-c3cnc(N)c(C(=O)Nc4cnccc4N4CCOCC4)n3)ccc2N1` (stereo not drawn) [Compound 243] gave a pEC50 in experiment [1] of 6.00 to 7.00. The same compound showed a pIC50 at TGFBR2 of 6.00 to 7.00.

Compound `Nc1ncc(-c2ccc(O[C@H]3CCN(C(=O)OCc4ccccc4)C3)cc2)nc1C(=O)Nc1cnccc1N1CCOCC1` [Compound 164] showed a pEC50 in experiment [1] of 6.00 to 7.00. The compound further had a pIC50 against TGFBR2 of 7.00 to 7.30.

With `Nc1ncc(-c2ccc3ccccc3c2)nc1C(=O)Nc1cnccc1N1CCOCC1` [Compound 252], the pEC50 in experiment [1] is 6.00 to 7.00. This compound also showed a pIC50 at TGFBR2 of over 7.30.

With `Nc1ncc(-c2ccc3c(c2)CCC3)nc1C(=O)Nc1cnccc1N1CCOCC1` [Compound 185], the pEC50 in experiment [1] is 6.00 to 7.00. Also, the pIC50 against TGFBR2 is over 7.30.

In experiment [1], `Nc1ncc(-c2ccc(N3CCNCC3=O)cc2)nc1C(=O)Nc1cnccc1N1CCOCC1` [Compound 84] gave a pEC50 of 6.00 to 7.00. At TGFBR2, the pIC50 was 6.00 to 7.00.

Compound `CC(C)(C)OC(=O)N1CCN(c2ccc(-c3cnc(N)c(C(=O)Nc4cnccc4N4CCOCC4)n3)cc2)CC1` [Compound 71] showed a pEC50 in experiment [1] of 6.00 to 7.00. This compound showed a pIC50 against TGFBR2 of over 7.30.

For `Nc1ncc(-c2ccc(CCNC(=O)OCc3ccccc3)cc2)nc1C(=O)Nc1cnccc1N1CCC(F)(F)CC1` [Compound 29], the pEC50 in experiment [1] was 6.00 to 7.00. In addition, the pIC50 against TGFBR2 is under 6.00.

`NCCc1ccc(-c2cnc(N)c(C(=O)Nc3cnccc3N3CCOCC3)n2)c(F)c1` [Compound 55]: the negative-log EC50 (pEC50) in experiment [1] is over 7.30. Besides, the pIC50 against TGFBR2 was over 7.30.

As for `Nc1cc(-c2ccncc2NC(=O)c2nc(-c3ccc(CCNC(=O)OCc4ccccc4)cc3)cnc2N)ccn1` [Compound 40], the pEC50 in experiment [1] was under 6.00. Moreover, the negative-log IC50 (pIC50) on TGFBR2 was over 7.30.

Compound `Nc1ncc(-c2ccc(CCNC(=O)OCc3ccccc3)cc2)nc1C(=O)Nc1cnccc1-c1ccc(O)cc1` [Compound 34] showed a pEC50 in experiment [1] of under 6.00. For the same compound, the pIC50 against TGFBR2 was 6.00 to 7.00.

In experiment [1], `CC(C)(C)OC(=O)N1CCc2ccc(-c3cnc(N)c(C(=O)Nc4cnccc4N4CCOCC4)n3)cc2C1` [Compound 68] showed a pEC50 of 6.00 to 7.00. The compound also showed a pIC50 at TGFBR2 of over 7.30.

`COCCCN(C)c1ccncc1NC(=O)c1nc(-c2ccc(CCN)cc2)cnc1N` [Compound 103]: the pEC50 in experiment [1] is 6.00 to 7.00. The negative logarithm of the IC50 (pIC50) against TGFBR2 is over 7.30.

Regarding `CC(C)(C)OC(=O)N1CCC[C@H]1C(=O)NCc1ccc(-c2cnc(N)c(C(=O)Nc3cnccc3N3CCOCC3)n2)cc1` [Compound 109], in experiment [1], the pEC50 is 6.00 to 7.00. The compound also showed a pIC50 against TGFBR2 of over 7.30.

With `Nc1ncc(-c2ccccc2Cl)nc1C(=O)Nc1cnccc1N1CCOCC1` [Compound 151], the pEC50 in experiment [1] was 6.00 to 7.00. Besides, on TGFBR2, the pIC50 is 7.00 to 7.30.

As to `COC(=O)[C@@H](CCOc1ccc(-c2cnc(N)c(C(=O)Nc3cnccc3N3CCOCC3)n2)cc1)NC(=O)OCc1ccccc1` [Compound 270], in experiment [1], the pEC50 is 6.00 to 7.00. The pIC50 at TGFBR2 is over 7.30.

Consider `Nc1ncc(-c2ccc3c(c2)CCCC3O)nc1C(=O)Nc1cnccc1N1CCOCC1` (stereo not drawn) [Compound 245], for which, in experiment [1], the pEC50 is 6.00 to 7.00. The pIC50 against TGFBR2 was over 7.30.

`C[C@H](N)C(=O)NCc1ccc(-c2cnc(N)c(C(=O)Nc3cnccc3N3CCOCC3)n2)cc1` [Compound 106] showed a pEC50 in experiment [1] of 6.00 to 7.00. At TGFBR2, this compound had a pIC50 of 7.00 to 7.30.

On to `Nc1ncc(-c2ccc(OCC[C@H](N)C(=O)O)cc2)nc1C(=O)Nc1cnccc1N1CCOCC1` [Compound 268], for which the pEC50 in experiment [1] is under 6.00. The same compound gave a pIC50 against TGFBR2 of over 7.30.

The compound `Nc1ncc(-c2ccc(CCNC(=O)OCc3ccccc3)cc2)nc1C(=O)Nc1cnccc1-c1ccncc1F` [Compound 23] had a pEC50 in experiment [1] of 6.00 to 7.00. This compound also gave a pIC50 at TGFBR2 of over 7.30.
